Results as given in patent US10072055B2, “Anti-inflammatory pharmaceutical products” (Resother Pharma APS, priority 2011, dated 2018).
“Also recorded” adds a separate entry of the source. Ends that are not written are not given here.

Legend:
HNE = target: T1, HNE (Homo sapiens, UniProt P08246); assay: In vitro degradation/digest in the presence of HNE; format: in vitro ADME
T1 sequence (P08246 30-267): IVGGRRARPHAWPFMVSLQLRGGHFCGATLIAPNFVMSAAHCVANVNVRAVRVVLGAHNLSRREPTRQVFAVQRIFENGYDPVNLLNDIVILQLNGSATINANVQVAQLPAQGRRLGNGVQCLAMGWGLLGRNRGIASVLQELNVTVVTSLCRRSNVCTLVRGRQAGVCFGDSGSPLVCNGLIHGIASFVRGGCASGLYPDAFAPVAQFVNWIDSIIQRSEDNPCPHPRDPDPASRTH
Protocol: FIG. 9 is a logarithmic plot of the degradation over time of three polypeptides of the present disclosure, UGP022 (SEQ ID NO: 5), UGP025 (SEQ ID NO: 7) and UGP026 (SEQ ID NO: 8) in the presence of HNE, a protease implicated in the in vivo cleavage of Annexin 1.
In an attempt to improve the potency and increase the half-life of the UGP022 peptide of the present disclosure (SEQ ID NO: 5), a series of in vitro PR3 and FINE digests were conducted. […] This cleavage site is not believed to have been identified in the literature.
Degradation tests of three polypeptides of the present disclosure, UGP022 (SEQ ID NO:5), UGP025 (SEQ ID NO:7) and UGP026 (SEQ ID NO:8) in the presence of PR3, a protease implicated in the in vivo cleavage of Annexin 1, indicated better stability for polypeptides with Leucine substitution at position 24 relative to a polypeptide lacking that feature. Position 24 corresponds to position 25 of Annexin 1 because all tested polypeptides lack the methionine at position 1 of natural Annexin. A 47-residue polypeptide outperformed an otherwise identical 49-residue polypeptide. Similar results were obtained in degradation tests in the presence of FINE.
FIG. 9 is a logarithmic plot of the degradation over time of three polypeptides of the present disclosure, UGP022 (SEQ ID NO:5), UGP025 (SEQ ID NO:7) and UGP026 (SEQ ID NO:8) in the presence of […], a protease implicated in the in vivo cleavage of Annexin 1. […] Also, a 47-residue polypeptide amidated at its C-terminus outperformed an otherwise identical 49-residue polypeptide amidated at its C-terminus.

FPR2 = target: T2, FPR2 (Homo sapiens, UniProt P25090); assay: Binding affinity to FPR2
T2 sequence (P25090 1-351): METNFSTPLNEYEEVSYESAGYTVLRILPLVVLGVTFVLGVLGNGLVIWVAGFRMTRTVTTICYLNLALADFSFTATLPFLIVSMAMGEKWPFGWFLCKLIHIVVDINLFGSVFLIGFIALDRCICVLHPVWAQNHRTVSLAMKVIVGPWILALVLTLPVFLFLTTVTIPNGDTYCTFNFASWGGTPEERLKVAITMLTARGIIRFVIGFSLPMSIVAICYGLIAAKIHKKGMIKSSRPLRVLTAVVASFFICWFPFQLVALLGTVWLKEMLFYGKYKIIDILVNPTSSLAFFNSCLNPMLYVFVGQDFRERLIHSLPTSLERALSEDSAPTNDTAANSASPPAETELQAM

[1] = system: PMN interaction to an activated HUVEC monolayer; assay: Flow chamber assay: PMN interaction with activated HUVEC monolayer (capture, rolling, adhesion); format: cell-based, human; settings: for inhibition of PMN/neutrophil-endothelium interactions in flow chamber: concentration not given
Description: FIGS. 2A-2C are a series of charts reporting data from flow chamber analysis to determine the inhibitory capability of five polypeptides of the present disclosure (Pep57 (SEQ ID NO:12); Pep59 (SEQ ID NO:13), Pep60 (SEQ ID NO:15), Pep83 (SEQ ID NO:16) and Pep84 (SEQ ID NO:14)) and Ac-ANAX1(2-26)-OH to reduce PMN interaction to an activated HUVEC monolayer.
FIGS. 4A-4C are a series of bar charts reporting percent inhibition provided by three polypeptides (UGP022 (SEQ ID NO:5); UGP025 (SEQ ID NO:7) and UGP026 (SEQ ID NO:8)) of the present disclosure, at different concentrations, on three different parameters (capture—FIG. 4A; rolling—FIG. 4B; and adhesion—FIG. 4C).
FIGS. 2A-2C are a series of charts reporting data from flow chamber analysis to determine the inhibitory capability of five polypeptides (Pep57 (SEQ ID NO: 12); Pep59 (SEQ ID NO: 13), Pep60 (SEQ ID NO: 15), Pep83 (SEQ ID NO: 16) and Pep84 (SEQ ID NO: 14)) of the present disclosure and Ac-ANAX1(2-26)-OH to reduce PMN interaction to an activated HUVEC monolayer. PMNs (5×10^6) were incubated with 10 μM of the various peptides for 10 min at 37° C. The PMNs were then flowed for 8 min at 1 dyne/cm^2, prior to quantifying the degree of PMN interaction with the HUVECs, both as PMN capture (FIG. 2A), adhesion (FIG. 2B) and rolling (FIG. 2C). […] Data are mean±SEM of 3 independent experiments (with distinct PMN and HUVEC preparations); *=P<0.05 vs. CT group, data analyzed using one way ANOVA.
FIGS. 4A-4C make a direct comparison of the activities of UGP022 (SEQ ID NO:5), UGP025 (SEQ ID NO: 7) and UGP026 (SEQ ID NO: 8) in the flow chamber assay, presenting the degree of inhibition on the three parameters under analysis (capture (FIG. 4A); rolling (FIG. 4B) and adhesion (FIG. 4C)).

[2] = Anti-inflammatory properties, test not specified
[3] = system: phagocytosis of apoptotic cells; assay: Phagocytosis of apoptotic PMN (efferocytosis); format: cell-based
Description: FIG. 5 is a series of bar charts reporting the ability of three polypeptides (UGP022 (SEQ ID NO:5); UGP025 (SEQ ID NO:7) and UGP026 (SEQ ID NO:8))_of the present disclosure, at different concentrations, to mimic an Annexin A1 property of inducing phagocytosis of apoptotic cells.
In recent years important pro-resolving properties have been ascribed to Annexin A1, namely the induction of phagocytosis of apoptotic cells by macrophages and cells alike. This effect is also reliant on FPR2 and shared with other important pro-resolving mediators including the lipoxins and the resolvins.
FIG. 5 is a series of bar charts reporting the ability of three polypeptides (UGP022 (SEQ ID NO:5); UGP025 (SEQ ID NO:7) and UGP026 (SEQ ID NO:8)) of the present disclosure, at different concentrations, to mimic an Annexin A1 property of inducing phagocytosis of apoptotic cells.

| Substance | cleavage sites by HNE (HNE; in vitro digest) | binding affinity to FPR2 (FPR2) | inhibition of PMN/neutrophil-endothelium interactions in flow chamber [1] | lowest concentration with significant anti-inflammatory effect on human PMN ([1]; human PMN) [pM] | in vitro results, amidated vs free acid precursor [2] | induction of phagocytosis of apoptotic PMN [3] | stability / resistance to HNE degradation (HNE) | affinity to FPR2 over FPR1 (FPR2) | anti-inflammatory properties in vitro and in vivo [2] | activity in flow chamber assay at 100 fM ([1]; 100 fM) | activity in flow chamber assay at the higher concentrations tested ([1]; higher concentrations) |
| --- | --- | --- | --- | --- | --- | --- | --- | --- | --- | --- | --- |
| AMVSEFLKQAWFIENEEQEYVQTVKSSKGGPGSAVSPYPTFNPSSDVAA-NH2 [UGP022, ANXA1(2-50)-NH2] | Ala 10 (Ala11 relative to Annexin 1) and Val 21 (Val22 relative to Annexin 1); also recorded: Val 35 (Val36 relative to Annexin 1) was only cleaved by FINE; also recorded: Val 24 (Val25 relative to Annexin 1) | binding affinity to the FPR2 in the nanomolar range; also recorded: showing the highest affinity | more potent than either the UGP021 peptide; also recorded: able to reduce the number of human PMNs interacting with an activated endothelium, acting specifically through the FPR2 receptor | 1 | shows better in vitro results than with a free acid precursor | displaying the higher ability to induce this process |  |  |  |  |  |
| AMVSEFLKQAWFIENEEQEYVQTLKSSKGGPGSAVSPYPTFNPSSDVAA-NH2 [UGP026, Leu25-ANXA1(2-50)-NH2] |  |  | able to reduce the number of human PMNs interacting with an activated endothelium, acting specifically through the FPR2 receptor |  |  | promoted phagocytosis of the apoptotic PMN | more resistant to PR3 and FINE than the UGP022 peptide | retain a higher affinity to FPR2 over FPR1 | possess anti-inflammatory properties both in vitro and in vivo |  |  |
| AMVSEFLKQAWFIENEEQEYVQTLKSSKGGPGSAVSPYPTFNPSSDV-NH2 [UGP025, Leu25-ANXA1(2-48)-NH2] |  | seems to have a higher affinity to FPR2 than does UGP026 | able to reduce the number of human PMNs interacting with an activated endothelium, acting specifically through the FPR2 receptor |  |  | promoted phagocytosis of the apoptotic PMN | more resistant to PR3 and FINE than the UGP022 peptide | retain a higher affinity to FPR2 over FPR1 | seeming more potent | slightly more active at the 100 fM concentration when compared to the UGP022 peptide | less active at the higher concentrations tested |
